The values that follow come from patent US20130336988A1, “METHODS FOR TREATING EARLY STAGE OR MILD NEUROLOGICAL DISORDERS” (NEW YORK UNIVERSITY, priority 2010, published 2013).

This assay deals with Cortical neurons expressing p75^NTR. The experiment in a line: Growth cone collapse in cortical neurons. It counts as cell-based, mouse. The settings on record: cortical neurons expressing p75NTR (not shown). How it is done:
Primary hippocampal and cortical neurons were isolated from E15 C57BL/6 mouse embryos as previously described (PEREIRA, D. B. et al., Journal of Neuroscience 27:4859-4869 (2007)). Briefly, neurons were dissociated by incubation with 0.05% trypsin at 37° C. for 8 min followed by trituration with fire-polished glass Pasteur pipettes. Cells were plated on poly-D-lysine coated dishes and grown in Neurobasal medium containing B27, 0.5 mM glutamine (all Invitrogen) and 10 μM 5-fluorodeoxyuridine. Hippocampal neurons were transfected at DIV2 using Lipofectamine2000 (Invitrogen). For coverslips in a 24-well plate, 0.5 μg plasmid were mixed with 0.5 μl Lipofectamine2000, and for glass bottom dishes, 1.5 μg plasmid were mixed with 1.5 μl Lipofectamine2000. The complexes were added to the cells for 30-45 min, and then neurons were placed back into preconditioned media until analysis the following day. HT1080 cells were grown in DMEM/10% fetal bovine serum (both Invitrogen) and transfected using the AMAXA nucleofector (Lonza) according to manufacturer's instructions. 293FT cells were grown in DMEM/10% fetal bovine serum and transfected with Lipofectamine2000 according to manufacturer's instructions.

Consider “proNGF: proneurotrophin precursor of nerve growth factor, produced in Sf9 cells and purified”, for which the “growth cone collapse in cortical neurons” value is reported as “displayed growth cone collapse”.
